{"source": "patent EP1099438A2", "about": "“Use of APO B secretion/MTP inhibitors” (Pfizer Products Inc., priority 1999, dated 2001)", "test_system": "food intake", "test": "food intake reduction determination protocol in dogs", "format": "in vivo", "conditions": "male beagles, oral gavage, dosing solution 0.5 mg/mL at 1 mL per kg body weight, single dose on Days 0 and 5-12; 24 hour food consumption versus amount consumed prior to Day 0", "source_text": "Healthy, young adult (1-2 years of age) male beagles (Marshall Farms, North Rose, New York, NY 14516) weighing 11.45 - 12.45 kg at the start of the treatment period were employed as test subjects. The animals were housed individually in standard caging meeting or exceeding the USDA regulations (U.S. Department of Agriculture, Animal Welfare, Final Rules. 9 C.F.R. Parts 1-3, 1995).\nThe test compound was provided as a water-soluble powder. The dosing solution, administered by oral gavage, was provided employing a 0.025 M citrate buffer (approx. pH = 3) prepared using anhydrous citric acid (0.4 g/mL) and anhydrous sodium citrate (0.1 g/mL) as the test vehicle. The dosing solution was prepared at 0.5 mg/mL activity so that 1 mL was delivered per kg body weight. Following a fourteen day acclimation period (designated as Days -14 to -1), during which time the test animals were evaluated for certain criteria including determination of body weight and physical examinations, a sixteen day evaluation study was effected.\nThe study consisted of one group of animals containing five dogs. On Days 0 and 5-12, each dog received the dosing solution administered as a single dose at Time 0 on each dosing day via a feeding tube. […]\nReduction in food intake was quantitated by weighing individual food bowls each day prior to feeding and at the end of each 24 hour consumption period. […]", "data": [{"smiles": "CCCCN1CCc2cc(NC(=O)c3ccccc3-c3ccc(C(F)(F)F)cc3)ccc2C1", "note": "[4'-trifluoromethyl-biphenyl-2-carboxylic acid-(2-butyl-1,2,3,4-tetrahydroisoquinolin-6-yl)-amide]", "values": [{"measurement": "reduced food intake in dogs", "value": 30, "unit": "%"}]}, {"smiles": "CC(=O)NCCN1CCc2cc(NC(=O)c3ccccc3-c3ccc(C(F)(F)F)cc3)ccc2C1", "note": "[4'-trifluoromethyl-biphenyl-2-carboxylic acid-[2-(2-acetylaminoethyl)-1,2,3,4-tetrahydroisoquinolin-6-yl amide]", "values": [{"measurement": "reduced food intake in dogs", "value": 58, "unit": "%"}]}]}
